Where two headings read alike, the source gives them in different places.
Tested on: TGF-β signaling (PAI-1 promoter-luciferase in HepG2 cells)
Test: Assay 1: PAI-1 promoter luciferase reporter assay in HepG2 cells exposed to TGF-β
Description: The assay was performed in HepG2 cells stably transfected with the PAI-1 promoter (known to be a strong TGF-β responsive promoter) linked to a luciferase (firefly) reporter gene. The compounds were selected on their ability to inhibit luciferase activity in cells exposed to TGF-β. In addition cells were transfected with a second luciferase (Renilla) gene which was not driven by a TGF-β responsive promoter and was used as a toxicity control.
(96 well) microplates are seeded, using a multidrop apparatus, with the stably transfected cell line at a concentration of 35000 cells per well in 200 μl of serum-containing medium. These plates are placed in a cell incubator.
18 to 24 hours later (Day 2), cell-incubation procedure is launched. Cells are incubated with TGF-β and a candidate compound at concentrations in the range 50 nM to 10 μM (final concentration of DMSO 1%). The final concentration of TGF-β (rhTGFβ-1) used in the test is 1 ng/mL. […] The final volume of the test reaction is 150 μl. Each well contains only one candidate compound and its effect on the PAI-1 promoter is monitored.
Columns 11 and 12 are employed as controls. Column 11 contains 8 wells in which the cells are incubated in the presence of TGF-β, without a candidate compound. Column 11 is used to determine the ‘reference TGF-β induced firefly luciferase value’ against which values measured in the test wells (to quantify inhibitory activity) may be compared. In wells A12 to D12, cells are grown in medium without TGF-β. […]
12 to 18 hours later (day 3), the luciferase quantification procedure is launched. […] Following agitation (15 to 30 mins), luciferase activities of the plates are read in a dual-injector luminometer (BMG lumistar). For this purpose, 50 μl of luciferase assay reagent and 50 μl of ‘Stop & Glo’ buffer are injected sequentially to quantify the activities of both luciferases. […] For each of the compounds tested, a concentration response curve is constructed from which an IC50 value can be determined graphically.

Compound Cc1cccc(-c2n[nH]cc2-c2ccc3ncccc3n2)n1 [Example 2] has an IC50 (read-out: IC50 value in Assay 1 (inhibition of TGF-β induced firefly luciferase activity), HepG2 cells stably transfected with PAI-1 promoter-luciferase, rhTGFβ-1 1 ng/mL, 1% DMSO) of about 50 nM.
With c1ccc(-c2n[nH]cc2-c2ccc3ncccc3n2)nc1 [Example 1, 2-(3-Pyridin-2-yl-1H-pyrazol-4-yl)-1,5-naphthyridine] the IC50 (Homo sapiens, HepG2, read-out: IC50 value in Assay 1 (inhibition of TGF-β induced firefly luciferase activity)) was about 50 nM.
For O=C1C=CCC1 [CPO, Cyclopentenone, reference compound], the “firefly and renilla luciferase activities relative to those obtained in column 11 (TGF-β only)” value (500 μM CPO in presence of TGF-β, toxicity control wells E12 to H12) was “around 50%”.
